Entries after “also recorded” stand apart in the source; their conditions may differ. Like-named read-outs stand apart in the source and are kept apart here.
Key:
[1] = system: bacterial T3S; conditions: cited from earlier work
[2] = system: T3S mediated cytotoxic response of HeLa cells infected by Y. pestis
[3] = system: YopE-B1a secretion; experiment: microbe, parasite or virus in culture; format: cell-based, Y. pestis; conditions: for IC50 / inhibition at 60 µM: Yersinia pestis
[4] = system: HeLa cells; experiment: Cytotoxicity of compounds, Lactate Dehydrogenase (LDH) assay; conditions: 60 μM
[5] = system: YopH secretion; format: cell-based, Y. pestis
[6] = system: YopE-B1a translocation to HeLa cells; experiment: cells; format: cell-based, Y. pestis
[7] = system: T3S; conditions: read-out: IC50 as T3S inhibitor in Y. pseudotuberculosis; cited from earlier work
[8] = system: Y. pestis JG401; format: cell-based
[9] = system: secretion of Yops; format: cell-based, Y. pestis
[10] = system: Y. pestis; format: cell-based
[11] = read-out: IC50 (μM) of YopE secretion, round 3 lead 1 analogs
[12] = read-out: IC50 of YopE secretion (Table 13)
[13] = read-out: Mean Inhibition (%) (3rd round compound 3 analogs)

CCCCCCCCC[C@H](CCCCCCCC(C)=O)O[C@@H]1O[C@H](CO)[C@@H](O)[C@H](O)[C@H]1O[C@@H]1O[C@H](CO[C@@H]2O[C@H](C)[C@H](O)[C@H](O)[C@@H]2O)[C@@H](OC(C)=O)[C@H](OC(=O)CCC)[C@H]1O[C@@H]1O[C@@H](C)[C@H](O)[C@@H](O)[C@@H]1O [Caminoside A]
activity in screen for bacterial T3S inhibitors [1]: potent activity

Cl.O=C(Nc1cccc(Cl)c1)Nc1cccc(C2=NCCN2)c1 [Compound 1, 1-(3-chlorophenyl)-3-(3-(4,5-dihydro-1H-imidazol-2-yl)phenyl) urea hydrochloride]
inhibition of T3S mediated cytotoxic response (morphological change) [2]: inhibited the cytotoxic response

Cc1ccc(CSc2nc(C(=O)O)ccc2C#N)cc1 [Compound 1, 2-Pyridinecarboxylic acid, 5-cyano-6-[[(4-methylphenyl)methyl]thio]-]
IC50 [3, 11]: < 15 µM | IC50 [3, 12]: > 60 µM

Oc1ccc(Oc2ccc(O)cc2)cc1 [Compound 2-3]
cytotoxicity of analogs to HeLa cells (in words) [4]: significant decrease in cytotoxicity; also recorded: overcame the cytotoxicity | activity against YopH secretion (in words) [5]: showed activity | concentration dependent T3S inhibition (in words) [5]: retained inhibitory activity

Nc1cc(Oc2ccc(O)c(N)c2)ccc1O [Compound 2-4]
cytotoxicity of analogs to HeLa cells (in words) [4]: significant decrease in cytotoxicity

CCC(=O)O.CCC(=O)O.O=C(Nc1cccc(C2=NCCN2)c1)Nc1cccc(C2=NCCN2)c1 [Compound 3 dipropionate, propanoic acid, compd. with N,N′-bis[3-(4,5-dihydro-1H-imidazol-2-yl)phenyl]urea (2:1)]
inhibition of YopE-B1a translocation (in words) ([6]; 80 μM): completely inhibited | inhibition at 40 µM ([6]; Yersinia pestis, HeLa, 40 μM): 50%

Cl.N#Cc1cccc(NC(=O)Nc2cccc(C3=NCCN3)c2)c1 [Compound 3]
inhibition of T3S mediated cytotoxic response (morphological change) [2]: inhibited the cytotoxic response

CC(=O)c1ccc(NC(=O)Nc2cccc(C3=NCCN3)c2)cc1.Cl [Compound 4, 1-(4-acetylphenyl)-3-(3-(4,5-dihydro-1H-imidazol-2-yl)phenyl)urea hydrochloride]
inhibition of T3S mediated cytotoxic response (morphological change) [2]: inhibited the cytotoxic response

Cc1ccc(-c2nn(-c3ccccc3)cc2C2CC(c3cccs3)=NN2C(=O)CCC(=O)O)cc1 (centres unmarked) [Compound 4-5]
activity against YopH secretion (in words) [5]: showed activity

Cc1ccc(-c2nn(-c3ccccc3)cc2C2CC(c3ccccc3)=NN2C(=O)CCC(=O)O)cc1 (centres unmarked) [Compound 4-6]
activity against YopH secretion (in words) [5]: showed activity

O=C(N/N=C/c1cc(Br)cc(Br)c1O)c1ccc([N+](=O)[O-])cc1 [INP0007]
IC50 [7]: 50 µM | promotion of Y. pestis growth at 37° C. in the absence of Ca2+ [8]: did not promote the growth | inhibition of secretion of Yops (in words) [9]: inhibited secretion of Yops | inhibition of Y. pestis growth [10]: completely inhibited

N#Cc1ccc(C(=O)O)nc1SCc1ccc(Cl)cc1 [MC1_1-1, 6-(4-chlorobenzylthio)-5-cyanopicolinic acid]
IC50 [3, 12]: 20 µM

N#Cc1ccc(C(=O)O)nc1SCc1ccccc1 [MC1_1-2, 6-(benzylthio)-5-cyanopicolinic acid]
IC50 [3, 12]: 60 µM

COc1ccc(CSc2nc(C(=O)O)ccc2C#N)cc1 [MC1_1-3, 5-cyano-6-(4-methoxybenzylthio) picolinic acid]
IC50 [3, 12]: > 60 µM

N#Cc1ccc(C(=O)O)nc1SCc1cccc([N+](=O)[O-])c1 [MC1_1-4, 5-cyano-6-(3-nitrobenzylthio) picolinic acid]
IC50 [3, 12]: > 60 µM

N#Cc1ccc(C(=O)O)nc1SCc1ccccc1Cl [MC1_1-5, 6-(2-chlorobenzylthio)-5-cyanopicolinic acid]
IC50 [3, 12]: ≥ 60 µM

N#Cc1ccc(C(=O)O)nc1SCc1ccc(C(F)(F)F)cc1 [MC1_1-8]
IC50 [3, 12]: 55 µM

N#Cc1ccc(C(=O)O)nc1SCc1ccc(OC(F)(F)F)cc1 [MC1_1-9, 5-cyano-6-(4-(trifluoromethoxy)benzylthio) picolinic acid]
IC50 [3, 12]: 30 µM

N#Cc1ccc(C(=O)O)nc1Sc1ccc(Cl)cc1 [MC1_2-3, 6-(4-chlorophenylthio)-5-cyanopicolinic acid]
IC50 ([3]; read-out: IC50 (μM) of YopE secretion, 2nd round compound 1 analogs): < 15 µM | inhibition at 60 µM ([3]; 60 μM, read-out: Mean Inhibition (%) of YopE-B1a secretion (Table 14)): 95.9% | inhibition at 60 µM ([3]; 60 μM, read-out: inhibition on YopE-B1a secretion): ~95%

CNC(=O)c1ccc(C#N)c(SCc2ccc(Cl)cc2)n1 [MC1_3-1]
inhibitory activity on YopE-B1a secretion (in words) [3]: showed inhibitory activity | IC50 [3, 11]: < 15 µM

COC(=O)c1ccc(C#N)c(SCc2ccc(Cl)cc2)n1 [MC1_3-2]
inhibitory activity on YopE-B1a secretion (in words) [3]: showed inhibitory activity | IC50 [3, 11]: 20 ± 5 µM

N#Cc1ccc(C(N)=O)nc1SCc1ccc(Cl)cc1 [MC1_3-3]
inhibitory activity on YopE-B1a secretion (in words) [3]: showed inhibitory activity | IC50 [3, 11]: 50 ± 5 µM

O=C(Nc1cccc(C2=NCCN2)c1)Nc1cccc([N+](=O)[O-])c1 [MC3_1-2]
activity against YopH secretion (in words) [5]: showed inhibition | concentration dependent T3S inhibition (in words) [5]: concentration dependent inhibitory activities

N#Cc1cccc(NC(=O)Nc2cccc(C3=NCCN3)c2)c1 [MC3_1-3]
concentration dependent T3S inhibition (in words) [5]: concentration dependent inhibitory activities

O=C(Nc1cccc(C2=NCCN2)c1)Nc1cccc(C(F)(F)F)c1 [MC3_1-9]
concentration dependent T3S inhibition (in words) [5]: concentration dependent inhibitory activities

O=C(Nc1cccc(Br)c1)Nc1cccc(C2=NCCN2)c1 [MC3_1-10]
concentration dependent T3S inhibition (in words) [5]: concentration dependent inhibitory activities

O=C(Nc1cccc(Cl)c1)Nc1cccc(C2=NCCN2)c1 [MC3_1-16]
concentration dependent T3S inhibition (in words) [5]: concentration dependent inhibitory activities

FC(F)(F)c1cc(Nc2nc3cc(C4=NCCN4)ccc3o2)ccc1Cl [MC3_3-1]
inhibition at 60 µM [3, 13]: 69.8%

FC(F)(F)c1cc(Nc2nc3cc(C4=NCCCN4)ccc3o2)ccc1Cl [MC3_3-2]
inhibition at 60 µM [3, 13]: 49%

FC(F)(F)c1cc(Nc2nc3ccc(C4=NCCN4)cc3o2)ccc1Cl [MC3_3-3]
inhibition at 60 µM [3, 13]: 103%

FC(F)(F)c1cc(Nc2nc3ccc(C4=NCCN4)cc3[nH]2)ccc1Cl [MC3_3-4]
inhibition at 60 µM [3, 13]: 0%

Reference: US9340505B2, “Type III secretion inhibitors, analogs and uses thereof” (priority 2007, dated 2016)
